What was measured:
[1] = system: normal primary NK cells, pool 1 (3 donors) (IL-2 2.5 ng/mL); assay: percent inhibition of viability; higher = more inhibition; conditions: 72 h
[2] = system: normal primary NK cells, pool 3 (3 donors) (IL-2 2.5 ng/mL); assay: as above; conditions: 72 h
DERL-7 (IL-2 2.5 ng/mL) [3] = assay: as above; conditions: 72 h
NK-92 (IL-2 2.5 ng/mL) [4] = assay: as above; conditions: 72 h
YT (IL-2 2.5 ng/mL) [5] = assay: as above; conditions: 72 h
[6] = system: normal primary NK cells, pool 2 (3 donors) (IL-2 2.5 ng/mL); assay: as above; conditions: 72 h
IMC-1 (IL-2 20 ng/mL) [7] = assay: as above; conditions: 72 h
SNK-6 (IL-2 2.5 ng/mL) [8] = assay: as above; conditions: 72 h
[9] = system: normal primary NK cells, pool 1 (3 donors), resting (IL-2 0 ng/mL); assay: as above; conditions: 72 h
KAI3 (IL-2 2.5 ng/mL) [10] = assay: as above; conditions: 72 h
NK-YS (IL-2 2.5 ng/mL) [11] = assay: as above; conditions: 72 h
NKL (IL-2 2.5 ng/mL) [12] = assay: as above; conditions: 72 h
KHYG-1 (IL-2 2.5 ng/mL) [13] = assay: as above; conditions: 72 h
[14] = system: normal NK cells expanded with K562-aAPC; assay: as above; conditions: 72 h, IL-2 2.5 ng/mL
Description: (§1)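 Drug sensitivity and resistance testing on K562-aAPC-expanded normal NK cells: 5 concentrations (10-fold steps over a 10,000-fold range), 72 h at 37 °C, viability by CellTiter-Glo normalised to DMSO and benzethonium chloride controls; DSS from the fitted curve.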

[15] = system: normal NK cells expanded with K562-aAPC; assay: drug sensitivity score (DSS) (DSS units); higher = more sensitive; extreme values may be limits of the assay; conditions: 72 h; IL-2 2.5 ng/mL
Description: as §1

[16] = system: normal primary NK cells, pool 1 (3 donors) (IL-2 2.5 ng/mL); assay: as above; conditions: 72 h
[17] = system: normal primary NK cells, pool 3 (3 donors) (IL-2 2.5 ng/mL); assay: as above; conditions: 72 h
DERL-7 (IL-2 2.5 ng/mL) [18] = assay: as above; conditions: 72 h
NK-92 (IL-2 2.5 ng/mL) [19] = assay: as above; conditions: 72 h
YT (IL-2 2.5 ng/mL) [20] = assay: as above; conditions: 72 h
[21] = system: normal primary NK cells, pool 2 (3 donors) (IL-2 2.5 ng/mL); assay: as above; conditions: 72 h
IMC-1 (IL-2 20 ng/mL) [22] = assay: as above; conditions: 72 h
SNK-6 (IL-2 2.5 ng/mL) [23] = assay: as above; conditions: 72 h
[24] = system: normal primary NK cells, pool 1 (3 donors), resting (IL-2 0 ng/mL); assay: as above; conditions: 72 h
KAI3 (IL-2 2.5 ng/mL) [25] = assay: as above; conditions: 72 h
NK-YS (IL-2 2.5 ng/mL) [26] = assay: as above; conditions: 72 h
NKL (IL-2 2.5 ng/mL) [27] = assay: as above; conditions: 72 h
KHYG-1 (IL-2 2.5 ng/mL) [28] = assay: as above; conditions: 72 h

CCOC(=O)CCNc1cc(N2CCc3ccccc3CC2)nc(-c2ccccn2)n1 [GSK-J4] (max concentration tested 100000 nM)
percent inhibition of viability [%]
Conditions | 10 nM | 100 nM | 1000 nM | 10000 nM | 100000 nM
DERL-7 (IL-2 2.5 ng/mL) [3] | -0.14 | 7.18 | 14.4 | 93.4 | 99.4
IMC-1 (IL-2 20 ng/mL) [7] | -5.61 | -2.96 | 39.7 | 97 | 100
KAI3 (IL-2 2.5 ng/mL) [10] | -4.58 | 1.93 | 2.78 | 94.3 | 98.9
KHYG-1 (IL-2 2.5 ng/mL) [13] | -1.03 | -1.4 | 20 | 101 | 99.2
NK-92 (IL-2 2.5 ng/mL) [4] | -9.95 | -0.92 | 60.9 | 104 | 98.1
NK-YS (IL-2 2.5 ng/mL) [11] | -1.22 | -3.86 | -1.41 | 98.6 | 99.6
NKL (IL-2 2.5 ng/mL) [12] | -0.55 | -7.46 | -8.29 | 104 | 98.2
SNK-6 (IL-2 2.5 ng/mL) [8] | -0.34 | 7.09 | 6.11 | 94.8 | 99.7
YT (IL-2 2.5 ng/mL) [5] | -1.98 | -3.85 | 4.52 | 104 | 99.3
[1] | -2.65 | -4.87 | 13.6 | 97.9 | 99.8
[2] | -2.08 | -5.17 | 19.9 | 94 | 99.5
[6] | -5.62 | -2.09 | 5.39 | 92.4 | 98.7
[9] | -7.04 | -16 | 34.7 | 96.2 | 99
[14] | -1.25 | -3.45 | -1.63 | 93.7 | 99.5

Conditions | drug sensitivity score
DERL-7 (IL-2 2.5 ng/mL) [18] | 18.9
IMC-1 (IL-2 20 ng/mL) [22] | 22.9
KAI3 (IL-2 2.5 ng/mL) [25] | 17.5
KHYG-1 (IL-2 2.5 ng/mL) [28] | 21.2
NK-92 (IL-2 2.5 ng/mL) [19] | 25.2
NK-YS (IL-2 2.5 ng/mL) [26] | 17.6
NKL (IL-2 2.5 ng/mL) [27] | 17.6
SNK-6 (IL-2 2.5 ng/mL) [23] | 18.1
YT (IL-2 2.5 ng/mL) [20] | 18.9
[15] | 16.9
[16] | 20.2
[17] | 19.8
[21] | 17.5
[24] | 22.6

C[C@@H]1C=C2C(=O)O[C@@H]3CC[C@H](C1)[C@]23O [Galiellalactone] (max concentration tested 25000 nM)
percent inhibition of viability [%]
Conditions | 2.5 nM | 25 nM | 250 nM | 2500 nM | 25000 nM
DERL-7 (IL-2 2.5 ng/mL) [3] | -3.32 | -2.23 | 6.78 | 39.3 | 101
IMC-1 (IL-2 20 ng/mL) [7] | -4.12 | -5.59 | -4.92 | -11.8 | 42.7
KAI3 (IL-2 2.5 ng/mL) [10] | 0.86 | -9.38 | 4.52 | 34.1 | 99.1
KHYG-1 (IL-2 2.5 ng/mL) [13] | -7.95 | -9.83 | -6.41 | 10.7 | 80.1
NK-92 (IL-2 2.5 ng/mL) [4] | -18 | -14.4 | -12.5 | 13.8 | 106
NK-YS (IL-2 2.5 ng/mL) [11] | 0.84 | -3.46 | 3.95 | 18.4 | 64.7
NKL (IL-2 2.5 ng/mL) [12] | -8.21 | -5.52 | -6.69 | -5.94 | 49.3
SNK-6 (IL-2 2.5 ng/mL) [8] | -13.8 | -22 | -28.1 | 20.7 | 86
YT (IL-2 2.5 ng/mL) [5] | -7.44 | -15.7 | -6.7 | -3.78 | 81
[1] | -8.48 | 6.95 | 7.01 | 15.2 | 93.7
[2] | -11.4 | 1.14 | -3.83 | 2.67 | 87.7
[6] | -9.13 | 7.06 | 4.86 | 10.7 | 93.2
[9] | -12.7 | 5.72 | 9.42 | 27.4 | 89.3
[14] | -7.73 | -4.65 | -5.56 | 8.69 | 91.9

Conditions | drug sensitivity score
DERL-7 (IL-2 2.5 ng/mL) [18] | 10.3
IMC-1 (IL-2 20 ng/mL) [22] | 1.6
KAI3 (IL-2 2.5 ng/mL) [25] | 9.99
KHYG-1 (IL-2 2.5 ng/mL) [28] | 6.22
NK-92 (IL-2 2.5 ng/mL) [19] | 7.95
NK-YS (IL-2 2.5 ng/mL) [26] | 6.25
NKL (IL-2 2.5 ng/mL) [27] | 2.18
SNK-6 (IL-2 2.5 ng/mL) [23] | 7.97
YT (IL-2 2.5 ng/mL) [20] | 4.18
[15] | 6.5
[16] | 7.72
[17] | 5.23
[21] | 6.94
[24] | 8.44

Cc1cc(Nc2cc(CN3CCOCC3)c3nc(C)c(Cc4ccc(Cl)cc4F)n3n2)n[nH]1 [Gandotinib] (max concentration tested 10000 nM)
percent inhibition of viability [%]
Conditions | 1 nM | 10 nM | 100 nM | 1000 nM | 10000 nM
DERL-7 (IL-2 2.5 ng/mL) [3] | 2.64 | 12.5 | 31.3 | 96.2 | 100
IMC-1 (IL-2 20 ng/mL) [7] | -4.23 | -6.96 | -22.2 | 36.1 | 99.6
KAI3 (IL-2 2.5 ng/mL) [10] | 8.43 | 12.9 | 45.1 | 92.9 | 82.2
KHYG-1 (IL-2 2.5 ng/mL) [13] | 0.26 | 6.43 | 45.7 | 106 | 95.9
NK-92 (IL-2 2.5 ng/mL) [4] | 4.87 | 11.2 | 20.5 | 86.5 | 96.2
NK-YS (IL-2 2.5 ng/mL) [11] | 1.47 | 2.64 | 22.9 | 77.5 | 93.6
NKL (IL-2 2.5 ng/mL) [12] | -9.53 | -6.03 | 52.5 | 77.8 | 71.9
SNK-6 (IL-2 2.5 ng/mL) [8] | 6.62 | 7.51 | 9.98 | 95 | 87.1
YT (IL-2 2.5 ng/mL) [5] | 1.95 | -0.29 | 5.49 | 77.5 | 94.8
[1] | -11.8 | -7.74 | 18.1 | 58.3 | 79.4
[2] | -10.9 | -0.67 | 2.59 | 43.9 | 65.9
[6] | -11.3 | -5.04 | 11.2 | 50.9 | 52.6
[9] | -20.1 | -7.1 | 2.98 | -45.4 | 20.2
[14] | -0.65 | 3.87 | 25.1 | 89.6 | 70.5

Conditions | drug sensitivity score
DERL-7 (IL-2 2.5 ng/mL) [18] | 21
IMC-1 (IL-2 20 ng/mL) [22] | 10.4
KAI3 (IL-2 2.5 ng/mL) [25] | 22
KHYG-1 (IL-2 2.5 ng/mL) [28] | 23.9
NK-92 (IL-2 2.5 ng/mL) [19] | 18.3
NK-YS (IL-2 2.5 ng/mL) [26] | 17.1
NKL (IL-2 2.5 ng/mL) [27] | 20.4
SNK-6 (IL-2 2.5 ng/mL) [23] | 18.8
YT (IL-2 2.5 ng/mL) [20] | 15
[15] | 20
[16] | 13
[17] | 8.97
[21] | 11.1
[24] | 0.18
